Test results reported in patent US12528802B2, “Heterocyclic compound” (Takeda Pharmaceutical Company Limited, priority 2019, dated 2026).

biological target: T1, glucosylceramide synthase (Homo sapiens, UniProt Q16739); experiment: Glucosylceramide synthase (GCS) enzyme assay, microsome fraction, C8 glucosylceramide quantified by Rapidfire MS/MS; format: biochemical; settings: test compound 10 μM; 1.7 μM UDP-glucose, 3 μM C8 ceramide; room temperature 60 min
T1 construct: made in house; host or cells: Expi293F cells (transient expression, pcDNA3.3-TOPO vector); microsome fraction used as enzyme source
T1 sequence (Q16739 1-394): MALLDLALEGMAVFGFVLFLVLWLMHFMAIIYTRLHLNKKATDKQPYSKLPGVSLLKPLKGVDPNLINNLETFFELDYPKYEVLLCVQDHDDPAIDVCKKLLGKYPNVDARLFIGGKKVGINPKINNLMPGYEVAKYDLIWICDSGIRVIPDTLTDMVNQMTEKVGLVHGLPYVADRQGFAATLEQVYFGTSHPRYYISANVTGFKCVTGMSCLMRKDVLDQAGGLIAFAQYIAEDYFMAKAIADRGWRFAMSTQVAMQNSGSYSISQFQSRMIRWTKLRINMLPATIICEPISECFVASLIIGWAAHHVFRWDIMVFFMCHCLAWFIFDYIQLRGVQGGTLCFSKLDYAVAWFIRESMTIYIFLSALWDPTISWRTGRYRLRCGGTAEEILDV
Experimental: Glucosylceramide Synthase (GCS) Assay
In enzyme assay, a microsome fraction obtained by transient expression by Expi293F™ cells (catalog number: A14527, Thermo Fisher Scientific) was used as a glucosylceramide synthase source. Liposomal C8 ceramide and UDP-glucose were used as substrates. […] After the enzymatic reaction, the analysis was performed with Rapidfire MS/MS (API-4000™, SCIEX), and C8 glucosylceramide was quantified to evaluate the inhibitory activity of the test compound against glucosylceramide synthase activity.
PcDNA3.3TOPO vector (catalog number: K830001, Thermo Fisher Scientific) into which the human GCS gene was inserted was introduced into Expi293F™ Cells (catalog number: A14527, Thermo Fisher Scientific) by using ExpiFectamine™ 293 Transfection Kit (catalog number: A14525, Thermo Fisher Scientific). The cultured cells were dissolved in D-PBS (catalog number: 048-29805, Fuji Film Wako Pure Chemical Industries, Ltd.) containing 1 mM PMSF, and the solution was allowed to stand on ice for 30 minutes, and then subjected to cell disruption (homogenized). The disruption solution was centrifuged at 10,000×g for 20 minutes at 4° C., and the obtained supernatant was centrifuged at 142,400×g for 60 minutes at 4° C. The obtained precipitate was resuspended in a D-PBS solution containing 1 mM PMSF, and homogenized again to prepare as a microsome fraction. Protein quantification was performed by the CBB method.
A 1 mM compound solution prepared by dissolving the test compound in DMSO was added to a 384-well plate by 100 nL so that the final concentration of the test compound was 10 μM. Next, a substrate solution consisting of 3.4 μM UDP-glucose and 6 μM C8 ceramide was added by 5 μL, followed by an enzyme solution consisting of a 25 μg/mL microsome fraction by 5 μL. C8 ceramide was prepared from liposomes composed of 15 mol % C8 ceramide and 85 mol % dioleoyl phosphatidylcholine (1,2-dioleoyl-sn-glycero-3-phosphocholine: DOPC). The enzymatic reaction was carried out in a solution consisting of 20 mM tris-hydrochloric acid buffer (pH 7.5), 0.01% Tween 20, 0.01% bovine serum albumin and 1 mM dithiothreitol at room temperature for 60 min. Then, a solution consisting of 75% isopropanol and 1% formic acid containing 0.25 μM N-Octadecanoyl-D35-psichosine (catalog number: 1914, Matreya) as an internal standard substance was added by 60 μL to stop the enzymatic reaction. 5 μL of the centrifugal supernatant of the obtained reaction product was analyzed by Rapidfire MS/MS (Agilent Technologies) using API-4000™ (SCIEX), and the C8 glucosylceramide was quantified to evaluate the inhibitory activity of the test compound against the glucosylceramide synthase activity. The inhibitory activity of the test compound was evaluated when the C8 glucosylceramide level in the enzyme-free solution was considered as 100% inhibitory and the enzyme activity of the DMSO group in the absence of the compound was considered as 0% inhibitory.

SMILES	GCS enzyme inhibitory rate at 10 μM (%) (% of control)
O=C1c2ccnc(-c3ccc(F)cc3OCC(F)(F)F)c2CN1c1ccc(C2(O)CCOC2)c(F)c1 (racemic) [Example 235, rac-2-[3-fluoro-4-(3-hydroxyoxolan-3-yl)phenyl]-4-[4-fluoro-2-(2,2,2-trifluoroethoxy)phenyl]-2,3-dihydro-1H-pyrrolo[3,4-c]pyridin-1-one]	97
O=C1c2ccnc(-c3ccc(F)cc3OCC(F)(F)F)c2CN1c1ccc(C2(O)CCOC2)c(F)c1 (racemic) [Example 238, rac-2-[3-fluoro-4-(3-hydroxyoxolan-3-yl)phenyl]-4-[4-fluoro-2-(2,2,2-trifluoroethoxy)phenyl]-2,3-dihydro-1H-pyrrolo[3,4-c]pyridin-1-one]	95

same assay, conditions: test compound 10 μM; 1.7 μM UDP-glucose, 3 μM C8 ceramide; room temperature 60 min; read-out: GCS enzyme inhibitory rate at 10 μM (%) (% of control)

SMILES	inhibition at 10 µM [%]
O=C1c2ccnc(-c3ccc(F)cc3OCC(F)(F)F)c2CN1c1ccc(C2(O)CCOC2)c(F)c1 (racemic) [Example 223, rac-2-[3-fluoro-4-(3-hydroxyoxolan-3-yl)phenyl]-4-[4-fluoro-2-(2,2,2-trifluoroethoxy)phenyl]-2,3-dihydro-1H-pyrrolo[3,4-c]pyridin-1-one]	96
CC(c1ccc(N2Cc3c(ccnc3-c3ccc(F)cc3OCC(F)(F)F)C2=O)cc1)N1CCCC1=O (racemic) [Example 232, rac-4-[4-fluoro-2-(2,2,2-trifluoroethoxy)phenyl]-2-{4-[1-(2-oxopyrrolidin-1-yl)ethyl]phenyl}-2,3-dihydro-1H-pyrrolo[3,4-c]pyridin-1-one]	82
O=C1c2ccnc(-c3ccccc3OCC(F)(F)F)c2CN1c1ccc(C(O)C(F)(F)F)nc1 (racemic) [Example 249, rac-4-[2-(2,2,2-trifluoroethoxy)phenyl]-2-[6-(2,2,2-trifluoro-1-hydroxyethyl)pyridin-3-yl]-2,3-dihydro-1H-pyrrolo[3,4-c]pyridin-1-one]	98
O=C1c2ccnc(-c3ccc(F)cc3OCC(F)(F)F)c2CN1c1ccc(C(O)C(F)F)cc1 (racemic) [Example 250, rac-2-[4-(2,2-difluoro-1-hydroxyethyl)phenyl]-4-[4-fluoro-2-(2,2,2-trifluoroethoxy)phenyl]-2,3-dihydro-1H-pyrrolo[3,4-c]pyridin-1-one]	99
O=C1c2ccnc(-c3ccc(F)cc3OCC(F)(F)F)c2CN1c1ccc(C(O)C(F)(F)F)cc1 (racemic) [Example 251, rac-4-[4-fluoro-2-(2,2,2-trifluoroethoxy)phenyl]-2-[4-(2,2,2-trifluoro-1-hydroxyethyl)phenyl]-2,3-dihydro-1H-pyrrolo[3,4-c]pyridin-1-one]	96
O=C1c2ccnc(-c3ccc(F)cc3OCC(F)(F)F)c2CN1c1ccc(C2(O)CCOC2)cn1 (racemic) [Example 256, rac-4-[4-fluoro-2-(2,2,2-trifluoroethoxy)phenyl]-2-[5-(3-hydroxyoxolan-3-yl)pyridin-2-yl]-2,3-dihydro-1H-pyrrolo[3,4-c]pyridin-1-one]	97
CC(O)c1ccc(N2Cc3c(ccnc3-c3ccccc3OCC(F)(F)F)C2=O)cc1 (racemic) [Example 280, rac-2-[4-(1-hydroxyethyl)phenyl]-4-[2-(2,2,2-trifluoroethoxy)phenyl]-2,3-dihydro-1H-pyrrolo [3,4-c]pyridin-1-one]	99
CC(O)c1ccc(N2Cc3c(ccnc3-c3ccc(F)cc3OCC(F)(F)F)C2=O)cc1 (racemic) [Example 282, rac-4-[4-fluoro-2-(2,2,2-trifluoroethoxy)phenyl]-2-[4-(1-hydroxyethyl)phenyl]-2,3-dihydro-1H-pyrrolo[3,4-c] pyridin-1-one]	99
CC(O)c1ccc(N2Cc3c(ccnc3-c3ccc(F)cc3OCC(F)(F)F)C2=O)cc1F (racemic) [Example 292, rac-2-[3-fluoro-4-(1-hydroxyethyl)phenyl]-4-[4-fluoro-2-(2,2,2-trifluoroethoxy)phenyl]-2,3-dihydro-1H-pyrrolo [3,4-c]pyridin-1-one]	99
